Values joined by “and” are separate entries in the source; they are usually repeats but may differ in a detail not shown here. Identical values can stand only once.

One experiment deals with T1, STAT5B NTD (Homo sapiens, UniProt P51692).
T1 construct: His-SUMO (N, cleaved yes); made in house; host or cells: E. coli BL21 RILP
T1 sequence (P51692 1-123): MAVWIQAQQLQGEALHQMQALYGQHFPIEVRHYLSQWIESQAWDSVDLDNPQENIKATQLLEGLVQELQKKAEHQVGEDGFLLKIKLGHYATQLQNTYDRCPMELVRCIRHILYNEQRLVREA
The experiment can be described thus: Microscale thermophoresis (MST), without irradiation. Type of experiment: binding. The note with it: for ΔFnorm: Fnorm - Unbound value; for Fnorm: MST raw data; for Kd: MST, without irradiation, 25 °C. How it is done:
For the microscale thermophoresis (MST) studies, we prepared 16 two-fold serial dilutions of compounds starting from 500 μM. Titration series were prepared that contained 10 μL of compounds’ solutions of varying concentrations and 10 μL RED-NHS 2nd Generation labeled STAT5B NTD with a concentration of 168 nM for compound PhP097, and a concentration of 84 nM for compound PhP065. Final buffer composition included 1X PBS containing 0.5% DMSO. All measurements were taken in Premium Coated Capillaries on a Monolith NT.115 instrument (NanoTemper Technologies, Munich, Germany) using 80% infrared laser power for compound PhP097, 60% infrared laser power for compound PhP065, and an LED excitation source with λ = 650 nm at a temperature of 25 °C. Results were expressed as the mean of two separate experiments, with three technical replicates each. GraphPad Prism 9.5.1 software was used to fit the data and to determine the KD values.

In another experiment the test system is MV4-11 cells. The experiment can be described thus: CellTiter-Blue cell viability assay, MV4-11. Type of experiment: cell-based. As to conditions: Homo sapiens, MV4-11, 72 h. How it is done:
(§1) MV4-11 and MOLM-13 cell lines were purchased from DSMZ (Braunschweig, Germany), and grown at 37 °C and 5% CO2 in RPMI 1640 medium (Gibco^TM, Thermo Fisher Scientific). Media were supplemented with 10% fetal calf serum (FCS), 10 U/mL penicillin, 10 µg/mL streptomycin and 2 mM L-glutamine (all Gibco^TM, Thermo Fisher Scientific).
(§2) To determine the IC50 of the selected compounds on the cell lines, CellTiter-Blue® cell viability assay (Promega) was performed. For this, cells were seeded in 96-well flat bottom plates at a cell density of 10,000 cells/well. Cells were treated in triplicates with the compound of interest at various concentrations or with 10 μM Bortezomib (S1013; Selleck Chemicals, Houston, TX, USA) as a positive control. Cell viability of treated cell lines was measured using CellTiter-Blue® after 72 h incubation. Plates were measured using a GloMax® plate reader (Promega) and IC50 values were determined by non-linear regression using the GraphPad Prism 9.1.1 (GraphPad Software, Inc.) and the data are reported as mean values ± SEM.

The next experiment deals with MOLM-13 cells. Description: CellTiter-Blue cell viability assay, MOLM-13. Type of experiment: cell-based. As to conditions: Homo sapiens, MOLM-13, 72 h. The protocol: as §1, §2
The mark [1] stands for this setting: Php065 concentration [log, µM] 0.290724, runs/replicates.
Where [2] appears, read: Php065 concentration [log, µM] 0.591766, runs/replicates.
Setting [3] is: Php065 concentration [log, µM] 0.89279, runs/replicates.
[4] abbreviates: Php065 concentration [log, µM] 1.19382, runs/replicates.
[5] abbreviates: Php065 concentration [log, µM] 1.49485, runs/replicates.
Setting [6] is: Php065 concentration [log, µM] 1.79588, runs/replicates.
Setting [7] is: Php065 concentration [log, µM] 2.09691, runs/replicates.
Setting [8] is: Php065 concentration [log, µM] -0.0102833, runs/replicates.
Where [9] appears, read: Php065 concentration [log, µM] -0.612432, runs/replicates.
Setting [10] is: Php065 concentration [log, µM] -1.21467, runs/replicates.

With `Cc1[nH]c2ccccc2c1SCCNC(=O)CCC1(C)N=N1` [PhP065, c1cccc(c12)c(c(C)[nH]2)SCCNC(=O)CCC3(C)N=N3], the ΔFnorm is 0.9086 ‰ and 1.12 ‰ and 1.315 ‰ and 0.6539 ‰ and 3.352 ‰ on STAT5B NTD (setting [1]); 1.904 ‰ and 1.964 ‰ and 2.239 ‰ and 1.873 ‰ and 1.543 ‰ on STAT5B NTD (setting [2]); 2.551 ‰ and 2.874 ‰ and 3.878 ‰ and 2.514 ‰ and 2.452 ‰ at STAT5B NTD (setting [3]); 2.441 ‰ and 3.584 ‰ and 3.84 ‰ and 4.085 ‰ and 3.441 ‰ on STAT5B NTD (setting [4]); 2.771 ‰ and 2.9356 ‰ and 3.692 ‰ and 3.134 ‰ and 1.982 ‰ at STAT5B NTD (setting [5]); 5.943 ‰ and 5.783 ‰ and 5.743 ‰ and 2.367 ‰ and 1.87 ‰ on STAT5B NTD (setting [6]). Further, the ΔFnorm at STAT5B NTD (setting [7]) was 3.3934 ‰ and 3.578 ‰ and 3.242 ‰ and 3.625 ‰ and 1.481 ‰; on STAT5B NTD (setting [8]), -0.1141 ‰ and 1.411 ‰ and 0.9224 ‰ and 2.015 ‰ and 2.612 ‰; on STAT5B NTD (setting [9]), 0.5449 ‰ and 0.5795 ‰ and -0.1361 ‰ and -1.636 ‰ and -0.3141 ‰; at STAT5B NTD (setting [10]) it was -0.5121 ‰ and -0.1857 ‰ and -0.4698 ‰ and -1.614 ‰ and -1.146 ‰. Further, the Fnorm at STAT5B NTD (setting [1]) is 864.059 ‰ and 864.76 ‰ and 864.855 ‰ and 874.324 ‰ and 877.312 ‰; on STAT5B NTD (setting [2]) it was 865.054 ‰ and 865.604 ‰ and 865.779 ‰ and 875.543 ‰ and 875.503 ‰; on STAT5B NTD (setting [3]), 865.701 ‰ and 866.514 ‰ and 867.418 ‰ and 876.184 ‰ and 876.412 ‰; on STAT5B NTD (setting [4]), 865.591 ‰ and 867.224 ‰ and 867.38 ‰ and 877.755 ‰ and 877.401 ‰; on STAT5B NTD (setting [5]), 865.921 ‰ and 866.576 ‰ and 867.232 ‰ and 876.804 ‰ and 875.942 ‰; on STAT5B NTD (setting [6]), 869.093 ‰ and 869.423 ‰ and 869.283 ‰ and 876.037 ‰ and 875.83 ‰. Further, the Fnorm on STAT5B NTD (setting [7]) was 866.543 ‰ and 867.218 ‰ and 866.782 ‰ and 877.295 ‰ and 875.441 ‰; on STAT5B NTD (setting [8]), 863.036 ‰ and 865.051 ‰ and 864.462 ‰ and 875.685 ‰ and 876.572 ‰; on STAT5B NTD (setting [9]) it was 863.695 ‰ and 864.219 ‰ and 863.404 ‰ and 872.034 ‰ and 873.646 ‰; at STAT5B NTD (setting [10]) it was 862.638 ‰ and 863.454 ‰ and 863.07 ‰ and 872.056 ‰ and 872.814 ‰. In addition, the Kd on STAT5B NTD amounted to 2.58 µM. Further, the concentration for half-maximal inhibition (IC50) with MV4-11 cells turned out to be 76.2 µM; in the experiment on MOLM-13 cells, 100 µM.

On to `CC1(CCC(=O)NCCc2csc(-c3ccccc3)n2)N=N1` [PhP097, N1=NC1(C)CCC(=O)NCCc2csc(n2)-c3ccccc3], for which the ΔFnorm at STAT5B NTD (Php097 concentration [log, µM] 0.591766, runs/replicates) is 5.764 ‰ and 7.778 ‰ and 6.699 ‰ and -1.199 ‰ and -1.302 ‰ and -4.005 ‰; at STAT5B NTD (Php097 concentration [log, µM] 0.89279, runs/replicates), -7.395 ‰ and -5.5397 ‰ and -5.711 ‰ and 0.2163 ‰ and 4.053 ‰ and 0.9615 ‰; at STAT5B NTD (Php097 concentration [log, µM] 1.19382, runs/replicates) it was -4.091 ‰ and -1.8497 ‰ and -1.165 ‰ and -5.318 ‰ and -5.614 ‰ and -5.274 ‰; on STAT5B NTD (Php097 concentration [log, µM] 1.49485, runs/replicates) it was -4.445 ‰ and -4.535 ‰ and -5.873 ‰ and -8.126 ‰ and -4.727 ‰ and -7.108 ‰; on STAT5B NTD (Php097 concentration [log, µM] 1.79588, runs/replicates) it was -8.587 ‰ and -6.363 ‰ and -6.457 ‰ and -11.6433 ‰ and -8.368 ‰ and -12.1062 ‰; at STAT5B NTD (Php097 concentration [log, µM] 2.09691, runs/replicates), -14.77 ‰ and -11.6203 ‰ and -10.8651 ‰ and -10.9408 ‰ and -5.699 ‰ and -12.7461 ‰. Further, the ΔFnorm was -1.7884 ‰ and 0.2047 ‰ and 0.7983 ‰ and -10.6185 ‰ and -13.0284 ‰ and -12.5258 ‰ on STAT5B NTD (Php097 concentration [log, µM] 2.39794, runs/replicates); 4.6455 ‰ and 5.66 ‰ and 7.637 ‰ and -9.481 ‰ and -8.884 ‰ and -7.417 ‰ on STAT5B NTD (Php097 concentration [log, µM] -0.0102833, runs/replicates); -5.603 ‰ and -3.243 ‰ and -1.459 ‰ and 3.271 ‰ and 2.052 ‰ and 1.015 ‰ on STAT5B NTD (Php097 concentration [log, µM] -0.311313, runs/replicates); 4.1952 ‰ and 9.04 ‰ and 7.8226 ‰ and -0.03038 ‰ and -2.726 ‰ and -0.9924 ‰ at STAT5B NTD (Php097 concentration [log, µM] -0.913284, runs/replicates); 0.7011 ‰ and -0.01526 ‰ and 1.427 ‰ and -0.3532 ‰ at STAT5B NTD (Php097 concentration [log, µM] -1.5157, runs/replicates). The Fnorm at STAT5B NTD (PhP097 concentration [log, µM] 0.591766, runs/replicates) was 720.204 ‰ and 719.528 ‰ and 720.009 ‰ and 710.951 ‰ and 712.028 ‰ and 710.045 ‰; on STAT5B NTD (PhP097 concentration [log, µM] 0.89279, runs/replicates) it was 707.045 ‰ and 706.21 ‰ and 707.599 ‰ and 712.366 ‰ and 717.383 ‰ and 715.011 ‰; on STAT5B NTD (PhP097 concentration [log, µM] -0.0102833, runs/replicates), 719.086 ‰ and 717.41 ‰ and 720.947 ‰ and 702.669 ‰ and 704.446 ‰ and 706.633 ‰; on STAT5B NTD (PhP097 concentration [log, µM] -0.311313, runs/replicates), 708.837 ‰ and 708.507 ‰ and 711.851 ‰ and 715.421 ‰ and 715.382 ‰ and 715.065 ‰; on STAT5B NTD (PhP097 concentration [log, µM] -0.913284, runs/replicates), 718.635 ‰ and 720.79 ‰ and 721.133 ‰ and 712.12 ‰ and 710.604 ‰ and 713.058 ‰; on STAT5B NTD (PhP097 concentration [log, µM] -1.5157, runs/replicates) it was 715.141 ‰ and 711.735 ‰ and 714.737 ‰ and 711.797 ‰ and 713.155 ‰ and 719.464 ‰. Besides, binding on STAT5B NTD was characterised by a dissociation constant (Kd) of 18.1 µM. The results for the IC50 with MV4-11 cells and in the experiment with MOLM-13 cells were 56.6 µM and 68.2 µM, respectively.
